Consider 1 compound from article PMC3830934 (Science (New York, N.Y.), 2002).

The target of this test is T1, human DHFR (Homo sapiens, UniProt P00374).
T1 sequence (P00374 1-187): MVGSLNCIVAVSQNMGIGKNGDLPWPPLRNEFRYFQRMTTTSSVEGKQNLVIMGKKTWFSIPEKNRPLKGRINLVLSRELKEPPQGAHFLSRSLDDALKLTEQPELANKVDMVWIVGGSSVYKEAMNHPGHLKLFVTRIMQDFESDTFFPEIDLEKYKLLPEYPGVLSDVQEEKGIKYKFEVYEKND
Put plainly: enzyme kinetic assay. The class given is biochemical.

As for `CC1(C)N=C(N)N=C(N)N1OCCCOc1cc(Cl)c(Cl)cc1Cl` [WR99210], the inhibition constant Ki amounted to 12 nM.

Broadly, the Ki is a measure of affinity in units of concentration, obtained from inhibition or displacement. Lower therefore signals higher affinity.
